According to ChEMBL document CHEMBL4610067, “Molecular Networking Reveals Serpentinine-Related Bisindole Alkaloids from Picralima nitida, a Previously Well-Investigated Species” (J Nat Prod, 2020):

How the values were obtained:
MRC5 = test: Growth inhibition of human MRC5 cells after 72 hrs by resazurin dye based spectrophotometric method assay; format: cell-based; conditions: MRC5, 72 h
Plasmodium falciparum = test: Antimalarial activity against chloroquine-resistant Plasmodium falciparum FcB1/Columbia infected in human erythrocytes assessed as reduction in [3H]-hypoxanthine incorporation pretreated for 24 hrs followed by [3H]-hypoxanthine addition measured after 24 hrs by liquid scintillation counting method; format: functional, organism-based

| SMILES | IC50 (MRC5) | IC50 (Plasmodium falciparum) |
| --- | --- | --- |
| C/C=C1/C[n+]2ccc3c([nH]c4ccccc43)c2C[C@@H]1CCO | > 50 µM | 19.5 µM |
| C/C=C1/CN2CCc3c([nH]c4ccccc34)[C@@H]2C[C@@H]1[C@H](Cc1c[n+]2c(c3[nH]c4ccccc4c13)C[C@@H]1C(C(=O)OC)=CO[C@@H](C)[C@@H]1C2)C(=O)OC | > 50 µM | 2.6 µM |
| C/C=C1/CN2CCc3c([nH]c4ccc(O)cc34)[C@@H]2C[C@@H]1CCO | > 50 µM | 99 µM |
| C/C=C1/CN2CCc3c([nH]c4ccccc34)[C@@H]2C[C@@H]1[C@H](Cc1c[n+]2c(c3[nH]c4ccccc4c13)C[C@H](CCO)[C@@H](CC)C2)C(=O)OC | > 50 µM | 8.7 µM |
| COC(=O)CCc1c[n+]2c(c3[nH]c4ccccc4c13)C[C@@H]1C(C(=O)OC)=CO[C@@H](C)[C@@H]1C2 | – | 3 µM |
| C/C=C1/CN2CCc3c([nH]c4ccccc34)[C@@H]2C[C@@H]1[C@H](Cc1c[n+]2c(c3[nH]c4ccccc4c13)C[C@@H]1C(C(=O)OC)=CO[C@@H](C)[C@@H]1C2)C(=O)O | > 50 µM | 5.2 µM |
| C/C=C1/C[n+]2cc(C[C@H](C(=O)OC)[C@H]3C[C@H]4c5[nH]c6ccccc6c5CCN4C/C3=C/C)c3c([nH]c4ccccc43)c2C[C@@H]1CCO | > 50 µM | 9.5 µM |
